Reference: patent US12427144B2, “Compounds and methods for the targeted degradation of androgen receptor” (Arvinas Operations, Inc., priority 2019, dated 2025)

target: T1, androgen receptor (Homo sapiens, UniProt P10275); assay: AR ELISA assay (PathScan AR Sandwich ELISA), VCaP cells; assay type: cell-based; conditions: drug treatment 5 hours
T1 construct: endogenous in cells; host or cells: VCaP
T1 sequence (P10275 1-920): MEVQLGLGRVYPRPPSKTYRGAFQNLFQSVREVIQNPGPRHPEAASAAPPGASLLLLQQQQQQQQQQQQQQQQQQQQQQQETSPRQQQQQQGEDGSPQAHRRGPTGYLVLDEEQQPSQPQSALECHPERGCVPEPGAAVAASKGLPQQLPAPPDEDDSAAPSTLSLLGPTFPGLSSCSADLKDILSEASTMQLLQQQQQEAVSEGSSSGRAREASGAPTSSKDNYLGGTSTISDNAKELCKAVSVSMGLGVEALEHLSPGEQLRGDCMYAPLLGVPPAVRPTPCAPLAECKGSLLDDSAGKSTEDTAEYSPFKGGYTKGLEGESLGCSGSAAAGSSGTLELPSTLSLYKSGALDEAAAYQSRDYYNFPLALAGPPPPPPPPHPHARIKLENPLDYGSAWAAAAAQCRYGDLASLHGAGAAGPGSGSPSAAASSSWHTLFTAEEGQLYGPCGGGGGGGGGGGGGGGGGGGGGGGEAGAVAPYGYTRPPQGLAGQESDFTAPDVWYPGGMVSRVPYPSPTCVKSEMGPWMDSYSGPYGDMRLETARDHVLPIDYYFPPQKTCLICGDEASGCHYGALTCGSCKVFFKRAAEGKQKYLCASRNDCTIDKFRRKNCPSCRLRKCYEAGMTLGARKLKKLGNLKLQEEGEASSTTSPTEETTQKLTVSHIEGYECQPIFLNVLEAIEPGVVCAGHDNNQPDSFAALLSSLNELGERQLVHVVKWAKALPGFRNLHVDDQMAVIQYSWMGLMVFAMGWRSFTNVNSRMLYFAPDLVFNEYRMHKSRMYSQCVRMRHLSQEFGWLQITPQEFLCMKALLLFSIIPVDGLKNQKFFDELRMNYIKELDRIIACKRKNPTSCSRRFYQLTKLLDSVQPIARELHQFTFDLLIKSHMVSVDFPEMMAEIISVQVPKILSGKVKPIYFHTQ
Experimental: Compounds were evaluated in this assay in LNCaP and/or VCaP cells utilizing similar protocols. The protocols used with VCaP cells are described below. The androgen receptor ELISA assay was performed using PathScan AR Sandwich ELISA (Cell Signaling Catalog #12850) according to the following assay steps:
VCaP cells were seeded at 40,000 cells/well at a volume of 100 μL/well in VCaP assay medium [Phenol red free RPMI (Gibco Cat #11835-030); 5% Charcoal Stripped (Dextran treated) FBS (Omega Scientific, Cat #FB-04); 1% penstrep (Life Technologies, Gibco Cat #: 10378-016)] in Corning 3904 plates. The cells were incubated for a minimum of 3 days. Cells were dosed with PROTACs diluted in 0.01% DMSO and the drug treatment was allowed for 5 hours.
AR ELISA (Cell Signaling) was performed as follows. 1× Cell Signaling Cell lysis buffer was made (Catalogue #9803; comes with the kit). Media from the treated wells is aspirated, and 100 μL 1× cell lysis buffer/well is added. The cells were placed on a shaker for 10 minutes at 4° C. Twenty microliters of lysate was transferred to 100 μl of Diluent in ELISA plate (0.15 μg/ml-[…]). The lysate-diluent mixture was shaken for 30 minutes at 37° C. Allow mouse AR antibody, anti-mouse antibody, TMB, and STOP solution to come to room temperature. The 1×ELISA buffer included in kit was made and loaded in the reservoir. Media from the plates was discarded, the ELISA plate tapped hard on paper towel, and washed 4×200 μl ELISA wash buffer using a plate washer.
One-hundred (100) […] of mouse AR detection Ab was added; the plates were covered and shaken at 37° C. for 1 hour; media was discarded from the plates, the plates were tapped on a paper towel, washed 4× with 200 μL ELISA wash buffer with a plate washer.
One-hundred (100) […] of anti-mouse—HRP conjugated Ab (comes with the kit) was added; the plates were covered and shaken at 37° C. for 30 minutes; the TMB reagent was allowed to come to room temperature; the media was discard from the plate, the plates were tapped on paper towel, washed 4× with 200 μL of ELISA wash buffer; the plates were tapped the plates on paper towel. One-hundred (100) L of TMB was added and the plates shaken for 2 minutes—while watching for color development. One-hundred (100) L Stop solution was added when light blue color developed. Plates were shaken and read at 450 nm.
Progression of prostate cancer in patients treated with anti-androgen therapy usually involves one of several mechanisms of enhanced Androgen Receptor (AR) signaling, including increased intratumoral androgen synthesis, increased AR expression and AR mutations. PROTACs (PROteolysis TArgeting Chimera), which use bi-functional molecules that simultaneously bind a target of choice and an E3 ligase, cause ubiquitination via induced proximity and degradation of the targeted, pathological protein. As opposed to traditional target inhibition, which is a competitive process, degradation is a progressive process. As such, it is less susceptible to increases in endogenous ligand, target expression, or mutations in the target. Thus, this technology appears to be ideal for addressing the mechanisms of AR resistance in patients with prostate cancer. Data was analyzed and plotted using GraphPad Prism software.

| SMILES | DC50 | Dmax |
| --- | --- | --- |
| Cc1cc(O[C@H]2C(C)(C)[C@H](NC(=O)c3cnc(N4CCC(CN(C(C)C)[C@H]5C[C@H](Oc6cccc(C(=O)NC7CCC(=O)NC7=O)c6)C5)CC4)nc3)C2(C)C)cc(C)c1C#N (stereo partly drawn) [Compound 11, N-((1R,3R)-3-(4-cyano-3,5-dimethylphenoxy)-2,2,4,4-tetramethylcyclobutyl)-2-(4-((((1R,3R)-3-(3-((2,6-dioxopiperidin-3-yl)carbamoyl)phenoxy)cyclobutyl)(isopropyl)amino)methyl)piperidin-1-yl)pyrimidine-5-carboxamide] | < 1 nM | 50 to 70% |
| Cc1cc(O[C@H]2C(C)(C)[C@H](NC(=O)c3cnc(N4CCC(CN(C(C)C)[C@H]5C[C@H](Oc6ccc(C(=O)NC7CCC(=O)NC7=O)cc6)C5)CC4)nc3)C2(C)C)cc(C)c1C#N (stereo partly drawn) [Compound 12, N-((1R,3R)-3-(4-cyano-3,5-dimethylphenoxy)-2,2,4,4-tetramethylcyclobutyl)-2-(4-((((1R,3R)-3-(4-((2,6-dioxopiperidin-3-yl)carbamoyl)phenoxy)cyclobutyl)(isopropyl)amino)methyl)piperidin-1-yl)pyrimidine-5-carboxamide] | < 1 nM | ≥ 70% |
| Cc1cc(O[C@H]2C(C)(C)[C@H](NC(=O)c3cnc(N4CCC(CN(C(C)C)[C@H]5C[C@H](Oc6ccc(C(=O)NC7CCC(=O)NC7=O)cc6)C5)CC4)cn3)C2(C)C)cc(C)c1C#N (stereo partly drawn) [Compound 13, N-((1R,3R)-3-(4-cyano-3,5-dimethylphenoxy)-2,2,4,4-tetramethylcyclobutyl)-5-(4-((((1R,3R)-3-(4-((2,6-dioxopiperidin-3-yl)carbamoyl)phenoxy)cyclobutyl)(isopropyl)amino)methyl)piperidin-1-yl)pyrazine-2-carboxamide] | 1 to 10 nM | 50 to 70% |
| Cc1cc(O[C@H]2C(C)(C)[C@H](NC(=O)c3cnc(N4CCC(CN(C(C)C)[C@H]5C[C@H](Oc6cccc(C(=O)NC7CCC(=O)NC7=O)c6)C5)CC4)cn3)C2(C)C)cc(C)c1C#N (stereo partly shown) [Compound 15, 5-(4-[[(propan-2-yl)[(1r,3r)-3-[3-[(2,6-dioxopiperidin-3-yl)carbamoyl]phenoxy]cyclobutyl]amino]methyl]piperidin-1-yl)-N-[(1r,3r)-3-(4-cyano-3,5-dimethylphenoxy)-2,2,4,4-tetramethylcyclobutyl]pyrazine-2-carboxamide] | 1 to 10 nM | < 50% |
| CC(C)N(CC1CCN(c2cnc(C(=O)N[C@H]3C(C)(C)[C@H](Oc4ccc(C#N)c(Cl)c4)C3(C)C)cn2)CC1)[C@H]1C[C@H](Oc2ccc(C(=O)NC3CCC(=O)NC3=O)cc2)C1 (stereo partly drawn) [Compound 16, N-((1R,3R)-3-(3-chloro-4-cyanophenoxy)-2,2,4,4-tetramethylcyclobutyl)-5-(4-((((1R,3R)-3-(4-((2,6-dioxopiperidin-3-yl)carbamoyl)phenoxy)cyclobutyl)(isopropyl)amino)methyl)piperidin-1-yl)pyrazine-2-carboxamide] | 1 to 10 nM | < 50% |
